Entries after “also recorded” stand apart in the source; their conditions may differ.
Tests used:
[1] = test system: rainbow trout; conditions: cited from earlier work
[2] = lung tissue; cited from earlier work
[3] = test system: RSV Long strain; test: Pulmonary histopathology in RSV infected BALB/c mice; format: in vivo; conditions: DIM administered orally or parenterally
Protocol: The Following Experimental BALB/c Groups and Treatment Protocol Using DIM were Studied: • 1. RSV infected positive control group, infected with RSV and injected subcutaneously (SC) once daily with DMSO/Phosphate Buffered Saline (PBS) vehicle. • 2. RSV infected, Low dose Parenteral DIM group (15 mg/kg/day), injected SC once daily with DIM suspension • 3. RSV infected, High dose DIM Group (150 mg/kg/day), injected SC once daily with DIM suspension • 4. RSV infected, orally treated DIM group (250 mg/kg/day from absorption enhanced DIM [Example 6.1]), added to powdered feed • 5. Uninfected negative control group, nasally administered vehicle only, and injected subcutaneously (SC) once daily with DMSO/PBS vehicle
Mouse treatment, infection and harvest. […]
To determine viral titer, the lung was homogenized in DMEM supplemented with 2% FBS (2 ml DMEM per 100 mg tissue) in cold. […] Multiple, 4 μm thick sections were stained with haematoxylin & eosin (H&E) and scored for cellular inflammation under light microscopy by two independent researchers. Inflammatory infiltrates were scored by enumerating the layers of inflammatory cells surrounding the vessels and bronchioles. […] A total of about 20 spaces per lung were counted for each animal. […] The concentration of cysteinyl leukotrienes conjugates in the BALF was determined by an ELISA kit following the manufacturer's protocol (R&D Systems, Minneapolis, Minn.). […]

[4] = test system: RSV, strain A2; test: Production of infectious RSV from infected A549 cells (plaque titer on HEp-2 monolayers); format: cell-based, Respiratory Syncytial Virus
Protocol: Cell Culture—A549 cells, a tumor cell line with properties of normal airway epithelial cells, were obtained from American Type Culture Collection (ATCC, Manassas, Va.) and incubated at 37° C. in 5% CO2. The cells were cultured in Eagle's minimum essential medium (MEM, Invitrogen) supplemented with 10% fetal bovine serum (HyClone, Logan, Utah) and […] gentamicin. The A549 cells were subcultured by harvesting in 0.12% trypsin no more than 20 times from stock originally designated at pass 70. To minimize effects of exogenous growth factors or cytokines in this system, the supplemented serum concentration was reduced to 0.5% 24 h prior to and during all experiments with RSV infection. […] RSV Virus—RSV, strain A2, was obtained from Advanced Biotechnologies Inc. (Columbia, Md.) and was used directly as supplied for all experiments. The viral preparation was tested to have a TCID50 titer of ˜1×10^9 in Hep-2 cells at 7 days. […] Levels of Production of Infectious RSV—Production of infectious RSV particles in A549 cell culture in the presence of various concentrations of DIM was measured using a method where the cell free media were titered for RSV infectious activity on a monolayer culture of Hep-2 cells. […] The plaques that appeared around 48 h of incubation were visualized by neutral red staining and counted.

c1ccc2c(Cc3c[nH]c4ccccc34)c[nH]c2c1 [DIM, 3,3′-diindolylmethane]
estrogenic activity [1]: estrogenic | tissue distribution [2]: concentrated in lung tissue | severity in lung pathology [3]: reduced severity in lung pathology | RSV yield: viral replication and production of extracellular, progeny RSV viral particles ([4]; 72 hour treatment of infected A549 cells, DIM 70, 210, 700 nM, LY294002 2 and 5 μM, FIG. 2): reduced production of infectious, progeny RSV virons; also recorded: significantly reduced viral replication and production of extracellular, progeny RSV viral particles | Reduction of RSV replication by DIM compared with LY294002 ([4]; infected A549 cells, 72 h, nM DIM vs higher concentrations of LY294002): equal or greater to that caused by LY294002; also recorded: comparable to that seen with higher concentrations of LY294002

Source: US8552052B2, “Use of diindolylmethane-related indoles for the treatment and prevention of respiratory syncytial virus associated conditions” (BioResponse, L.L.C., priority 2004, dated 2013)
